Reference: patent publication US9150577B2, “Heterocyclic compounds containing an indole core” (Boehringer Ingelheim International GmbH, priority 2009, dated 2015)
pIC50: −log10 of the molar value.

Molecular target: Human RSK2 (Homo sapiens (Human), UniProt P51812)
Assay: Human RSK2 assay (Kinase Glo Plus, residual ATP);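 also: recombinant human RSK2 phosphorylating a substrate peptide, 90 min at 28 °C, leftover ATP read by luminescence, RLU scaled between no-kinase background and uninhibited kinase controls, 4-parameter fit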
Type: biochemical

Chain of Human RSK2 (P51812 whole entry): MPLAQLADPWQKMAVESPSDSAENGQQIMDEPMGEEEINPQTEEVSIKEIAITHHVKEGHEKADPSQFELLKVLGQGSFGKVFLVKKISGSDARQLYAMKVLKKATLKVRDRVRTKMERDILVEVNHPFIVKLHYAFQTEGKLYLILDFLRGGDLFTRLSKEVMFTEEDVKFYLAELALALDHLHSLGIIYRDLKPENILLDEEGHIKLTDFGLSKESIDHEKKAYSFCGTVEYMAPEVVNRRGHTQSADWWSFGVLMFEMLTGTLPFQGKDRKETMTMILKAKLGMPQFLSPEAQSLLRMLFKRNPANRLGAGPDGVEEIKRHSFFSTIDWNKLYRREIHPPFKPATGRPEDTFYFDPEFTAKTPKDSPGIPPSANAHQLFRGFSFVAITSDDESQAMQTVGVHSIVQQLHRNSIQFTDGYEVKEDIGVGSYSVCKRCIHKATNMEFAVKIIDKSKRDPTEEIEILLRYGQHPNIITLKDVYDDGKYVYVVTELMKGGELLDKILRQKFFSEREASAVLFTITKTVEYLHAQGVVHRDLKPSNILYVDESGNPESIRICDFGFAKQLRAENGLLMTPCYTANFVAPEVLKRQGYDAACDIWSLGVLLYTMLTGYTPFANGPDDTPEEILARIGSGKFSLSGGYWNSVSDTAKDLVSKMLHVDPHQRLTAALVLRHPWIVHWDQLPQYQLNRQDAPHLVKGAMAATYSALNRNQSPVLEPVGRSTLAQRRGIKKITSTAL

| pIC50 | SMILES |
| --- | --- |
| 6.81 | O=C(Nc1cc(-c2ccc(F)cc2)on1)c1ccc2cc3n(c2c1)CCCNC3=O [Example 184, N-[5-(4-fluorophenyl)-1,2-oxazol-3-yl]-1-oxo-2,3,4,5-tetrahydro-1H-[1,4]diazepino[1,2-a]indole-8-carboxamide] |
| 7.17 | Cc1cc(NC(=O)c2ccc3cc4n(c3c2)CCCNC4=O)n[nH]1 [Example 219, N-(5-methyl-1H-pyrazol-3-yl)-1-oxo-2,3,4,5-tetrahydro-1H-[1,4]diazepino[1,2-a]indole-8-carboxamide] |
| 7.74 | O=C(Nc1cnn(-c2ccccc2)c1)c1ccc2cc3n(c2c1)CCCNC3=O [Example 192, 1-oxo-N-(1-phenyl-1H-pyrazol-4-yl)-2,3,4,5-tetrahydro-1H-[1,4]diazepino[1,2-a]indole-8-carboxamide] |
| 8.09 | CC1(C)CNC(=O)c2cc3ccc(C(=O)Nc4ccccc4C(N)=O)cc3n21 [Example 221, N-(2-carbamoylphenyl)-4,4-dimethyl-1-oxo-1,2,3,4-tetrahydropyrazino[1,2-a]indole-7-carboxamide] |
| 6.46 | O=C(Nc1cnn(Cc2ccccc2)c1)c1ccc2cc3n(c2c1)CC1(CCNCC1)CNC3=O [Example 238, N-(1-benzyl-1H-pyrazol-4-yl)-1-oxo-2,3-dihydro-1H-spiro[1,4-diazepino[1,2-a]indole-4,4′-piperidine]-8-carboxamide] |
| 7.52 | O=C(Nc1cc(Cc2ccccc2)on1)c1ccc2cc3n(c2c1)CCCNC3=O [Example 212, N-(5-benzyl-1,2-oxazol-3-yl)-1-oxo-2,3,4,5-tetrahydro-1H-[1,4]diazepino[1,2-a]indole-8-carboxamide] |
| 5.20 | Cc1cc(NC(=O)c2ccc3cc4n(c3c2)CC2(CCNCC2)CNC4=O)no1 [Example 237, N-(5-methyl-1,2-oxazol-3-yl)-1-oxo-2,3-dihydro-1H-spiro[1,4-diazepino[1,2-a]indole-4,4′-piperidine]-8-carboxamide] |
| 7.03 | O=C(Nc1cc[nH]n1)c1ccc2cc3n(c2c1)CCCNC3=O [Example 220, 1-oxo-N-(1H-pyrazol-3-yl)-2,3,4,5-tetrahydro-1H-[1,4]diazepino[1,2-a]indole-8-carboxamide] |
| 8.22 | Cn1cc(NC(=O)c2ccc3cc4n(c3c2)C(C)(C)CNC4=O)nc1C(=O)NC(C)(C)C [Example 231, N-[2-(tert-butylcarbamoyl)-1-methyl-1H-imidazol-4-yl]-4,4-dimethyl-1-oxo-1,2,3,4-tetrahydropyrazino[1,2-a]indole-7-carboxamide] |
| 7.57 | CC1(c2cc(NC(=O)c3ccc4cc5n(c4c3)CCCNC5=O)on2)CC1 [Example 197, N-[3-(1-methylcyclopropyl)-1,2-oxazol-5-yl]-1-oxo-2,3,4,5-tetrahydro-1H-[1,4]diazepino[1,2-a]indole-8-carboxamide] |
| 8.68 | CC1CCNC(=O)c2cc3ccc(C(=O)Nc4cn(C)c(C(=O)NC5CCCC5)n4)cc3n21 (centres unmarked) [Example 234, N-[2-(cyclopentylcarbamoyl)-1-methyl-1H-imidazol-4-yl]-5-methyl-1-oxo-2,3,4,5-tetrahydro-1H-[1,4]diazepino[1,2-a]indole-8-carboxamide] |

More lines, now with the values behind:

| SMILES | pIC50 |
| --- | --- |
| O=C(Nc1nc2cc(C(F)(F)F)ccc2[nH]1)c1ccc2cc3n(c2c1)CCCNC3=O [Example 43, 1-oxo-N-[5-(trifluoromethyl)-1H-benzimidazol-2-yl]-2,3,4,5-tetrahydro-1H-[1,4]diazepino[1,2-a]indole-8-carboxamide] | 7.62 |
| O=C(Nc1cnn(CCN2CCOCC2)c1)c1ccc2cc3n(c2c1)CCCNC3=O [Example 37, N-{1-[2-(morpholin-4-yl)ethyl]-1H-pyrazol-4-yl}-1-oxo-2,3,4,5-tetrahydro-1H-[1,4]diazepino[1,2-a]indole-8-carboxamide] | 7.08 |
| O=C(Nc1ccncc1)c1ccc2cc3n(c2c1)CCCNC3=O [Example 156, 1-oxo-N-(pyridin-4-yl)-2,3,4,5-tetrahydro-1H-[1,4]diazepino[1,2-a]indole-8-carboxamide] | 7.41 |
| C[C@H]1CNC(=O)c2cc3ccc(C(=O)Nc4cccnc4)cc3n21 [Example 155, (4S)-4-methyl-1-oxo-N-(pyridin-3-yl)-1,2,3,4-tetrahydropyrazino[1,2-a]indole-7-carboxamide] | 5.64 |
| O=C(Nc1cccc(N2CCOCC2)c1)c1ccc2cc3n(c2c1)CCCNC3=O [Example 7, N-[3-(morpholin-4-yl)phenyl]-1-oxo-2,3,4,5-tetrahydro-1H-[1,4]diazepino[1,2-a]indole-8-carboxamide] | 7.22 |
| O=C(Nc1ccn(-c2ccccc2)n1)c1ccc2cc3n(c2c1)CCCNC3=O [Example 14, 1-oxo-N-(1-phenyl-1H-pyrazol-3-yl)-2,3,4,5-tetrahydro-1H-[1,4]diazepino[1,2-a]indole-8-carboxamide] | 6.97 |
| CCn1c(NC(=O)c2ccc3cc4n(c3c2)CCCNC4=O)nc2cc(C)ccc21 [Example 40, N-(1-ethyl-5-methyl-1H-benzimidazol-2-yl)-1-oxo-2,3,4,5-tetrahydro-1H-[1,4]diazepino[1,2-a]indole-8-carboxamide] | 8.32 |
| Cc1cc(NC(=O)c2ccc3cc4n(c3c2)CC(F)(F)CNC4=O)no1 [Example 167, 4,4-difluoro-N-(5-methyl-1,2-oxazol-3-yl)-1-oxo-2,3,4,5-tetrahydro-1H-[1,4]diazepino[1,2-a]indole-8-carboxamide] | 6.17 |
| C[C@H]1NC(=O)c2cc3ccc(C(=O)Nc4nc5ccccc5n4CCCN(C)C)cc3n2[C@H]1C (relative stereo) [Example 90, N-{1-[3-(dimethylamino)propyl]-1H-benzimidazol-2-yl}-cis-3,4-dimethyl-1-oxo-1,2,3,4-tetrahydropyrazino[1,2-a]indole-7-carboxamide] | 8.68 |
| CN(C)CCCn1c(NC(=O)c2ccc3cc4n(c3c2)CC2(CCOCC2)CNC4=O)nc2ccccc21 [Example 95, N-{1-[3-(dimethylamino)propyl]-1H-benzimidazol-2-yl}-1-oxo-2,2′,3,3′,5′,6′-hexahydro-1H-spiro[1,4-diazepino[1,2-a]indole-4,4′-pyran]-8-carboxamide] | 7.80 |
| Cn1c(NC(=O)c2ccc3cc4n(c3c2)CCCNC4=O)nc2ccc(Cl)cc21 [Example 52, N-(6-chloro-1-methyl-1H-benzimidazol-2-yl)-1-oxo-2,3,4,5-tetrahydro-1H-[1,4]diazepino[1,2-a]indole-8-carboxamide] | 6.77 |
| CN(C)CCCn1c(NC(=O)c2ccc3cc4n(c3c2)CC(C)(C)CNC4=O)nc2cc(Cl)ccc21 [Example 50, N-{5-chloro-1-[3-(dimethylamino)propyl]-1H-benzimidazol-2-yl}-4,4-dimethyl-1-oxo-2,3,4,5-tetrahydro-1H-[1,4]diazepino[1,2-a]indole-8-carboxamide] | 7.47 |
| Cn1ccnc1NC(=O)c1ccc2cc3n(c2c1)CCCNC3=O [Example 109, N-(1-methyl-1H-imidazol-2-yl)-1-oxo-2,3,4,5-tetrahydro-1H-[1,4]diazepino[1,2-a]indole-8-carboxamide] | 5.66 |
| CN(C)CCCn1c(NC(=O)c2ccc3cc4n(c3c2)CC(F)(F)CNC4=O)nc2ccccc21 [Example 121, N-{1-[3-(dimethylamino)propyl]-1H-benzimidazol-2-yl}-4,4-difluoro-1-oxo-2,3,4,5-tetrahydro-1H-[1,4]diazepino[1,2-a]indole-8-carboxamide] | 7.64 |
| O=C(Nc1nc2ccccc2[nH]1)c1ccc2cc3n(c2c1)CCCNC3=O [Example 55, N-(1H-benzimidazol-2-yl)-1-oxo-2,3,4,5-tetrahydro-1H-[1,4]diazepino[1,2-a]indole-8-carboxamide] | 8.36 |
| O=C(Nc1cccnc1)c1ccc2cc3n(c2c1)CC(F)(F)CNC3=O [Example 152, 4,4-difluoro-1-oxo-N-(pyridin-3-yl)-2,3,4,5-tetrahydro-1H-[1,4]diazepino[1,2-a]indole-8-carboxamide] | 5.77 |
| CC(C)n1ccc(NC(=O)c2ccc3cc4n(c3c2)CCCNC4=O)n1 [Example 13, 1-oxo-N-[1-(propan-2-yl)-1H-pyrazol-3-yl]-2,3,4,5-tetrahydro-1H-[1,4]diazepino[1,2-a]indole-8-carboxamide] | 5.80 |
| C[C@H]1NC(=O)c2cc3ccc(C(=O)Nc4cccnc4)cc3n2[C@H]1C (relative stereo) [Example 179, Cis-3,4-dimethyl-1-oxo-N-(pyridin-3-yl)-1,2,3,4-tetrahydropyrazino[1,2-a]indole-7-carboxamide] | 7.35 |
| C[C@H]1CNC(=O)c2cc3ccc(C(=O)Nc4cccnc4)cc3n2[C@H]1C (relative stereo) [Example 150, Cis-4,5-dimethyl-1-oxo-N-(pyridin-3-yl)-2,3,4,5-tetrahydro-1H-[1,4]diazepino[1,2-a]indole-8-carboxamide] | 6.62 |
| C[C@H]1CNC(=O)c2cc3ccc(C(=O)Nc4cnn(Cc5ccccc5)c4)cc3n2[C@H]1C (relative stereo) [Example 136, N-(1-benzyl-1H-pyrazol-4-yl)-cis-4,5-dimethyl-1-oxo-2,3,4,5-tetrahydro-1H-[1,4]diazepino[1,2-a]indole-8-carboxamide] | 8.03 |
| CC(C)n1c(NC(=O)c2ccc3cc4n(c3c2)[C@H](C)CNC4=O)nc2ccccc21 [Example 68, (4R)-4-methyl-1-oxo-N-[1-(propan-2-yl)-1H-benzimidazol-2-yl]-1,2,3,4-tetrahydropyrazino[1,2-a]indole-7-carboxamide] | 8.72 |
| Cc1cc(NC(=O)c2ccc3cc4n(c3c2)CC(C)CNC4=O)no1 (centres unmarked) [Example 182, 4-methyl-N-(5-methyl-1,2-oxazol-3-yl)-1-oxo-2,3,4,5-tetrahydro-1H-[1,4]diazepino[1,2-a]indole-8-carboxamide] | 6.82 |
| CC(C)(C)c1cnc(NC(=O)c2ccc3cc4n(c3c2)CCCNC4=O)o1 [Example 111, N-(5-tert-butyl-1,3-oxazol-2-yl)-1-oxo-2,3,4,5-tetrahydro-1H-[1,4]diazepino[1,2-a]indole-8-carboxamide] | 5.74 |
| Cn1c(-c2ccccc2)cnc1NC(=O)c1ccc2cc3n(c2c1)CCCNC3=O [Example 107, N-(1-methyl-5-phenyl-1H-imidazol-2-yl)-1-oxo-2,3,4,5-tetrahydro-1H-[1,4]diazepino[1,2-a]indole-8-carboxamide] | 6.30 |
